pEC50: −log10 of the molar value.

Broadly, the pEC50 is the EC50 on a negative log10 scale, so that one unit is a factor of ten.

For the test, the target named is Sodium/myo-inositol cotransporter 2 (Homo sapiens) (UniProt Q8WWX8). The test can be described thus: sodium/myo-inositol cotransporter SLC5A11 activation – cell-based, membrane potential dye, HEK-293, SLC5A11 overexpression, dose response (AID 1794826). The conditions noted are these: HEK-293 SLC5A11 OE, FLIPR membrane potential dye.
Sodium/myo-inositol cotransporter 2 (Homo sapiens), sequence (Q8WWX8 whole entry, looked up): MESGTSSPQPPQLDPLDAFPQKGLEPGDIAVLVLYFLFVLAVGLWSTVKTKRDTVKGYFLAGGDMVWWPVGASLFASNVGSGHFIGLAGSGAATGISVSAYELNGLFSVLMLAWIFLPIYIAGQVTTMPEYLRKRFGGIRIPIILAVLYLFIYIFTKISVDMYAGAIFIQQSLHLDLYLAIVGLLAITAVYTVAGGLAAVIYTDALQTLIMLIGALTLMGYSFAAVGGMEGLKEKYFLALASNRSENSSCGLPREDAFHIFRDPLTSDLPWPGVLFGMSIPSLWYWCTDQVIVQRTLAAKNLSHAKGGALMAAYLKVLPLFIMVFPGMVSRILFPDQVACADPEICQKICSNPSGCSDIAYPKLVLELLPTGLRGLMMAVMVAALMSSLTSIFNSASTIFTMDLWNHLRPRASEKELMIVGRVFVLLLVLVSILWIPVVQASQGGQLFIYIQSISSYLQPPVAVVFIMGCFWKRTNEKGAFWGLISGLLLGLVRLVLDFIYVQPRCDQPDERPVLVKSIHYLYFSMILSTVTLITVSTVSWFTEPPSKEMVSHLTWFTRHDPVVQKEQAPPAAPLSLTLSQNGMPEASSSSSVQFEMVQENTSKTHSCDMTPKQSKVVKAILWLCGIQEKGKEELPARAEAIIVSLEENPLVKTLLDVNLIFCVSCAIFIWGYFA

With `OC1C(O)C(O)C(O)C(O)C1O` (stereo unspecified), the pEC50 is 3.98.

The values above are taken from PubChem BioAssay AID1794826.
